Where two headings read alike, the source gives them in different places.
Legend:
[1] = test system: cotton aphid (Aphis gossypii); assay: Translaminar insecticidal activity test on cotton leaves, N-oxides versus free amines; type: in vivo; conditions: for mortality at 500 ppm: Aphis gossypii
Description: Certain N-Substituted azacyclic compounds where the N-substituent is O^− (the N-oxides) of the present invention were tested to determine their translaminar characteristics as evidenced by activity against cotton aphid (Aphis gossypii) in comparison with their corresponding free amine derivatives. These tests were conducted in the following manner: For each compound tested, one cotton plant with two mature leaves was selected. On the top of one of the leaves a sticky material used for trapping insects was applied using a stamp of about 2.5 centimeters in diameter. The process was repeated on the bottom of the second leaf of the cotton plant. A solution of 500 ppm of test compound (dissolved in 1:1 acetone and water containing a small amount of surfactant) was then applied to the entire side of each leaf opposite the side stamped with the sticky material using a saturated cotton swab. Upon completion of the application of the test compounds, the cotton plants were maintained in a growth chamber for about 18 hours. After this time the leaves of the test plant were infested with a known number of cotton aphids by placing an infested leaf cutting from the cotton aphid colony directly over the sticky material on each leaf. The leaf cutting on the bottom of a leaf of the test plant was secured to the leaf with a pin. The treated and infested cotton plants were then maintained in a chamber, during which time they were evaluated at daily intervals of from one to up to eight days. A test compound was termed active (A) if the top and bottom of the leaves of the test plant were mostly free of aphids (80% to 100%) when compared to untreated controls. […]

cotton aphid = assay: Residual insecticidal activity test on sprayed cotton plants; type: in vivo, Aphis gossypii; conditions: 72 h exposure; for Percent Mortality 5 DAT (greenhouse): 5 day residual; for mortality at 224 g/ha / mortality at 560 g/ha / mortality at 1120 g/ha: Aphis gossypii
Description: Certain N-Substituted azacyclic compounds where the N-substituent is O^− (the N-oxides) of the present invention were also tested to determine their residual insecticidal activity. These tests were conducted in the following manner:
For each rate of application of test compound, a 15 mL aliquot of test solution was prepared. Sufficient test compound was dissolved in 1.5 mL of acetone to provide an application rate as high as 1200 grams/Ha. Each solution was then added to 13.5 mL of water containing 300 ppm of a surfactant. There were four replicates for each rate of application of test compound, and all tests included a known chemical standard as well as a standard of water and untreated checks.
A maximum of 14 appropriately sized cotton plants for each rate of application and replicate were arranged in a 28 pot plastic flat and sprayed with the 15 mL sample of test compound using an traveling boom sprayer equipped with a cone spray tip at a rate of 30 gallons/acre under a pressure of 40-44 psi. The untreated checks were sprayed first, followed by the test compounds and standards, all in order of lowest to highest rates of application. Once the spraying was complete, the test plants were allowed to air-dry on the conveyor on which they were sprayed.
In the test to determine residual activity (0 Day Residual) one set of dry plants was infested with leaf cuttings covered with about 25 cotton aphids taken from cotton plants in an aphid colony. The cotton plants were then maintained in a greenhouse or in an atmosphere of simulated direct sunlight for 72 hours after which time cotton aphid mortality was determined.
A second set of dry test plants treated with test compounds were maintained for three days (3 Day Residual), then infested with cotton aphid. The infested plants were maintained and evaluated for cotton aphid mortality after 72 hours as set forth above. Other residual activity periods are optionally evaluated also, for example a 5 day residual.
At the end of the 72 hour exposure period the numbers of live insects were counted a percent mortality of aphids was calculated based on the number of live insects present and the number that were infested onto the plants.

[2] = 500 ppm applied to opposite leaf side, 1 DAT
[3] = 500 ppm applied to opposite leaf side, 3 DAT
[4] = 500 ppm applied to opposite leaf side
[5] = 500 ppm applied to opposite leaf side, 6 DAT
[6] = 24 h, read-out: Percent Mortality at Day After treatment (DAT), 1 DAT
[7] = 72 h, read-out: Percent Mortality at Day After treatment (DAT), 3 DAT
[8] = 96 h, read-out: Percent Mortality at Day After treatment (DAT), 4 DAT
[9] = 120 h, read-out: Percent Mortality at Day After treatment (DAT), 5 DAT
[10] = 144 h, read-out: Percent Mortality at Day After treatment (DAT), 6 DAT
[11] = 500 ppm applied to opposite leaf side, 2 DAT
[12] = Table 4, 56 g/ha, 3 day residual, simulated sunlight environment
[13] = Table 4, 56 g/ha, greenhouse environment
[14] = Table 4, 56 g/ha, infested 0 days after treatment
[15] = Table 4, 112 g/ha, 3 day residual, simulated sunlight environment
[16] = Table 4, 112 g/ha, greenhouse environment
[17] = Table 4, 112 g/ha, infested 0 days after treatment
[18] = Table 4, 224 g/ha, 3 day residual, simulated sunlight environment
[19] = Table 4, 224 g/ha, greenhouse environment
[20] = Table 4, 224 g/ha, infested 0 days after treatment
[21] = 168 h, read-out: Percent Mortality at Day After treatment (DAT), 7 DAT

## CCc1noc(C2C[N+]3([O-])CCC2C3)n1 (stereo not shown) [Compound 397, N-Oxide of 5-(4-azabicyclo[2.2.1]hept-2-yl)-3-ethyl-1,2,4-oxadiazole]
[1]; [2]
  Percent Mortality at Day After treatment (DAT), 1 DAT: SA (SA is 50%-80% mortality when compared to the control)
[1]; [3]
  Percent Mortality at Day After treatment (DAT), 3 DAT: SA (SA is 50%-80% mortality when compared to the control)
[1]; 500 ppm applied to opposite leaf side, 4 DAT
  Percent Mortality at Day After treatment (DAT), 4 DAT: SA (SA is 50%-80% mortality when compared to the control)
[1]; [4]
  Percent Mortality at Day After treatment (DAT), 5 DAT: SA (SA is 50%-80% mortality when compared to the control)
[1]; [5]
  Percent Mortality at Day After treatment (DAT), 6 DAT: SA (SA is 50%-80% mortality when compared to the control)

## Cc1nnn(C2C[N+]3([O-])CCC2CC3)n1 (stereo not shown) [Compound 407, N-Oxide of 5-methyl-2-quinuclidin-3-yl-1,2,3,4-tetraazole]
[1]; [6]
  mortality at 500 ppm: < 50%
[1]; [7]
  mortality at 500 ppm: 50 to 80%
[1]; [8]
  mortality at 500 ppm: 50 to 80%
[1]; [9]
  mortality at 500 ppm: 50 to 80%
[1]; [10]
  mortality at 500 ppm: 50 to 80%

## Cc1noc(C2C[N+]3([O-])CCC2C3)n1 (stereo not shown) [Compound 396, N-Oxide of 5-(4-azabicyclo[2.2.1]hept-2-yl)-3-methyl-1,2,4-oxadiazole]
[1]; [11]
  Percent Mortality at Day After treatment (DAT), 2 DAT: A (A is 80%-100% mortality when compared to the control)
[1]; [3]
  Percent Mortality at Day After treatment (DAT), 3 DAT: A (A is 80%-100% mortality when compared to the control)
[1]; [4]
  Percent Mortality at Day After treatment (DAT), 5 DAT: A (A is 80%-100% mortality when compared to the control)
[1]; [5]
  Percent Mortality at Day After treatment (DAT), 6 DAT: A (A is 80%-100% mortality when compared to the control)
[1]; 500 ppm, whole 7-day period
  mortality throughout the seven-day test period: 100%
Cotton aphid; Table 3, 224 g/ha, 3 day residual, greenhouse environment
  Percent Mortality 3 DAT (greenhouse): 98%
Cotton aphid; Table 3, 224 g/ha, 3 day residual, simulated sunlight environment
  Percent Mortality 3 DAT (simulated sunlight): 99%
Cotton aphid; Table 3, 224 g/ha, infested 0 days after treatment
  Percent Mortality 0 DAT: 100%
Cotton aphid; Table 3, 560 g/ha, 3 day residual, greenhouse environment
  Percent Mortality 3 DAT (greenhouse): 100%
Cotton aphid; Table 3, 560 g/ha, 3 day residual, simulated sunlight environment
  Percent Mortality 3 DAT (simulated sunlight): 100%
Cotton aphid; Table 3, 560 g/ha, infested 0 days after treatment
  Percent Mortality 0 DAT: 100%
Cotton aphid; Table 3, 1120 g/ha, 3 day residual, greenhouse environment
  Percent Mortality 3 DAT (greenhouse): 100%
Cotton aphid; Table 3, 1120 g/ha, 3 day residual, simulated sunlight environment
  Percent Mortality 3 DAT (simulated sunlight): 100%
Cotton aphid; Table 3, 1120 g/ha, infested 0 days after treatment
  Percent Mortality 0 DAT: 100%
Cotton aphid; [12]
  Percent Mortality 3 DAT (simulated sunlight): 58%
Cotton aphid; [13]
  Percent Mortality 5 DAT (greenhouse): 64%
Cotton aphid; [14]
  Percent Mortality 0 DAT: 100%
Cotton aphid; [15]
  Percent Mortality 3 DAT (simulated sunlight): 70%
Cotton aphid; [16]
  Percent Mortality 5 DAT (greenhouse): 86%
Cotton aphid; [17]
  Percent Mortality 0 DAT: 100%
Cotton aphid; [18]
  Percent Mortality 3 DAT (simulated sunlight): 98%
Cotton aphid; [19]
  Percent Mortality 5 DAT (greenhouse): 93%
Cotton aphid; [20]
  Percent Mortality 0 DAT: 100%

## Cc1nnn(C2CN3CCC2CC3)n1 (stereo not shown) [E, 5-methyl-2-quinuclidin-3-yl-1,2,3,4-tetraazole]
[1]; [6]
  mortality at 500 ppm: < 50%
[1]; [7]
  mortality at 500 ppm: < 50%
[1]; [8]
  mortality at 500 ppm: < 50%
[1]; [9]
  mortality at 500 ppm: < 50%
[1]; [10]
  mortality at 500 ppm: < 50%

## Cc1nnn(C2C[N+]3([O-])CCC2C3)n1 (stereo not shown) [Compound 402, N-Oxide of 2-(4-azabicyclo[2.2.1]heptyl-2-yl)-5-methyl-1,2,3,4-tetrazole]
[1]; [2]
  Percent Mortality at Day After treatment (DAT), 1 DAT: A (A is 80%-100% mortality when compared to the control)
[1]; [11]
  Percent Mortality at Day After treatment (DAT), 2 DAT: A (A is 80%-100% mortality when compared to the control)
[1]; [3]
  Percent Mortality at Day After treatment (DAT), 3 DAT: A (A is 80%-100% mortality when compared to the control)
[1]; [5]
  Percent Mortality at Day After treatment (DAT), 6 DAT: A (A is 80%-100% mortality when compared to the control)
[1]; 500 ppm applied to opposite leaf side, 7 DAT
  Percent Mortality at Day After treatment (DAT), 7 DAT: A (A is 80%-100% mortality when compared to the control)
Cotton aphid; [12]
  Percent Mortality 3 DAT (simulated sunlight): 50%
Cotton aphid; [13]
  Percent Mortality 5 DAT (greenhouse): 45%
Cotton aphid; [14]
  Percent Mortality 0 DAT: 50%
Cotton aphid; [15]
  Percent Mortality 3 DAT (simulated sunlight): 84%
Cotton aphid; [16]
  Percent Mortality 5 DAT (greenhouse): 70%
Cotton aphid; [17]
  Percent Mortality 0 DAT: 84%
Cotton aphid; [18]
  Percent Mortality 3 DAT (simulated sunlight): 92%
Cotton aphid; [19]
  Percent Mortality 5 DAT (greenhouse): 84%
Cotton aphid; [20]
  Percent Mortality 0 DAT: 92%

## CN1CCC=C(c2cnsn2)C1 [A, 3-[1-methyl(1,2,5,6-tetrahydropyrid-3-yl)]-1,2,5-thiadiazole]
[1]; 24 h, 500 ppm applied to opposite leaf side, 1 DAT, read-out: Percent Mortality at Day After treatment (DAT), 1 DAT
  mortality at 500 ppm: < 50%
[1]; 48 h, 500 ppm applied to opposite leaf side, 2 DAT, read-out: Percent Mortality at Day After treatment (DAT), 2 DAT
  mortality at 500 ppm: < 50%
[1]; 72 h, 500 ppm applied to opposite leaf side, 3 DAT, read-out: Percent Mortality at Day After treatment (DAT), 3 DAT
  mortality at 500 ppm: < 50%
[1]; 96 h, 500 ppm applied to opposite leaf side, 4 DAT, read-out: Percent Mortality at Day After treatment (DAT), 4 DAT
  mortality at 500 ppm: < 50%
[1]; 144 h, 500 ppm applied to opposite leaf side, 6 DAT, read-out: Percent Mortality at Day After treatment (DAT), 6 DAT
  mortality at 500 ppm: < 50%

## Cc1nnn([C@H]2CN3CC[C@H]2C3)n1 [D, 2-(4-azabicyclo[2.2.1]heptyl-2-yl)-5-methyl-1,2,3,4-tetrazole]
[1]; [10]
  mortality at 500 ppm: 50 to 80%
[1]; [21]
  mortality at 500 ppm: 50 to 80%

## CCc1noc(C2CN3CCC2C3)n1 (stereo not shown) [C, 5-(4-azabicyclo[2.2.1]hept-2-yl)-3-ethyl-1,2,4-oxadiazole]
[1]; [6]
  mortality at 500 ppm: < 50%
[1]; [7]
  mortality at 500 ppm: < 50%
[1]; [8]
  mortality at 500 ppm: < 50%
[1]; [9]
  mortality at 500 ppm: < 50%
[1]; [10]
  mortality at 500 ppm: < 50%

## Cc1noc(C2CN3CCC2C3)n1 (stereo not shown) [Compound B, 5-(4-azabicyclo[2.2.1]hept-2-yl)-3-methyl-1,2,4-oxadiazole, reference compound]
[1]; [6]
  mortality at 500 ppm: < 50%
[1]; 48 h, read-out: Percent Mortality at Day After treatment (DAT), 2 DAT
  mortality at 500 ppm: < 50%
[1]; [7]
  mortality at 500 ppm: < 50%
[1]; [10]
  mortality at 500 ppm: < 50%
[1]; [21]
  mortality at 500 ppm: < 50%
[1]; 168 h, read-out: mortality throughout the seven-day test period
  mortality at 500 ppm: < 50%
Cotton aphid; Table 3, 224 g/ha, 3 day residual, greenhouse environment, read-out: Percent Mortality 3 DAT (greenhouse)
  mortality at 224 g/ha: 41%
Cotton aphid; Table 3, 224 g/ha, 3 day residual, simulated sunlight environment, read-out: Percent Mortality 3 DAT (simulated sunlight)
  mortality at 224 g/ha: 21%
Cotton aphid; Table 3, 224 g/ha, infested 0 days after treatment, read-out: Percent Mortality 0 DAT
  mortality at 224 g/ha: 100%
Cotton aphid; Table 3, 560 g/ha, 3 day residual, greenhouse environment, read-out: Percent Mortality 3 DAT (greenhouse)
  mortality at 560 g/ha: 84%
Cotton aphid; Table 3, 560 g/ha, 3 day residual, simulated sunlight environment, read-out: Percent Mortality 3 DAT (simulated sunlight)
  mortality at 560 g/ha: 49%
Cotton aphid; Table 3, 560 g/ha, infested 0 days after treatment, read-out: Percent Mortality 0 DAT
  mortality at 560 g/ha: 100%
Cotton aphid; Table 3, 1120 g/ha, 3 day residual, greenhouse environment, read-out: Percent Mortality 3 DAT (greenhouse)
  mortality at 1120 g/ha: 99%
Cotton aphid; Table 3, 1120 g/ha, 3 day residual, simulated sunlight environment, read-out: Percent Mortality 3 DAT (simulated sunlight)
  mortality at 1120 g/ha: 95%
Cotton aphid; Table 3, 1120 g/ha, infested 0 days after treatment, read-out: Percent Mortality 0 DAT
  mortality at 1120 g/ha: 100%
